Earlier results on three substances are cited in patent publication US20220304972A1, “COMBINATION THERAPY AND BIOMARKER INDICATING EFFICACY THEREOF” (Sumitomo Dainippon Pharma Co., Ltd., priority 2019, published 2022).

Read-outs that look alike come from different tables or passages of the source.

The test system of this data set is CRC patients.

In the case of “atezolizumab: anti-PD-L1 antibody, binds to PD-L1”, the ORR (MSS CRC, N=90 (2/90), Bendell et al. 2018, NCT02788279) is 2.2%.

For “pembrolizumab: anti-PD-1 antibody, binds to PD-1”, the ORR runs as follows: (MSS CRC, N=18, Le et al. 2015, NCT01876511) 0; (PD-1 positive MSS CRC, N=22, O' Neil et al. 2017, NCT02054806) 0.

Turning to “nivolumab: anti-PD-1 antibody, binds to PD-1”, the ORR is listed as 7 (CRC, N=14 (1/14), Brahmer 2010) and 0 (Refractory CRC, N=19, Topialan et al. 2012, NCT00730639).
